Measured values as given in patent publication US20190137505A1 (THE ARIZONA BOARD OF REGENTS ON BEHALF OF THE UNIVERSITY OF …, priority 2015, published 2019).

Target: T1, plasminogen (Pg) (Homo sapiens, UniProt P00747)
T1 construct: Glu-Pg, uPA, tPA, fibrinogen, and chromogenic substrate for Pn were purchased from Molecular Innovations (Novi, Mich.); purchased Molecular Innovations (Novi, Mich.)
Assay: Chromogenic activity assay: activation of unmodified and MG-modified Pg to plasmin by tPA, uPA or STK on a fibrin matrix
Assay type: biochemical
Settings: p<0.05
Experimental: 10 μg Pg was incubated with MG (50-500 μM) in tris-buffered saline (TBS) for 24 hours at 37° C. Following modification, sample volumes were increased to 150 μL and placed in 5 kDa spin filters to reduce volume and remove excess MG from solution.
96-well plate was incubated with 200 μL of 260 nM fibrinogen in TBS for 40 min at room temperature. Fibrinogen solution was removed and replaced with 250 μL TBS containing 3% bovine serum albumin and 0.01% TWEEN for 90 minutes at 37° C. Blocking solution was removed and the plate was washed twice with solution of 50 mM Tris-HCl, 110 mM NaCl and 0.01% TWEEN (pH 7.4). 5 units/mL of thrombin and 5 mM CaCl2 in 50 mM Tris-HCl, 110 mM NaCl (pH 7.4) was added to the wells for 45 min. A high salt wash (1 M NaCl, 50 mM Tris-HCl, pH 7.4) followed by a TBS-TWEEN wash completed plate prep.
Into each well 198 μL of 10 mM HEPES/150 mM NaCl (pH 7.4) was added. Into each well, 2 μL of 25 mM chromogenic substrate for Pn (D-VLK-pNA) was added. To appropriate wells were added 2 μL of 20 μM Pg, either a 24-hour unmodified control or 24 hour 50-500 μM MG modified. Activators were added to respective wells to test activation of unmodified and modified Pg. 2 μL of each activator enzyme was utilized in appropriate wells for tPA (1.2 μM), uPA (5 μM) and STK (500 nM). Following enzyme addition, plate was immediately read on a SpectraMax M2 plate reader (Molecular Devices) every minute for 90 minutes at an absorbance of 405 nm.
Pg (10 μg) was incubated with MG (50-500 μM) in 10 mM HEPES/150 mM NaCl (pH 7.4) for 24 hours at 37° C. Following modification, sample volumes were increased to 150 μL and placed in 5 kDa spin filters to reduce volume and remove excess MG from solution. A 96-well plate was incubated with 200 μL of 260 nM fibrinogen in TBS for 40 min. at room temperature. Fibrinogen solution was removed and replaced with 250 μL TBS containing 3% bovine serum albumin and 0.01% TWEEN for 90 minutes at 37° C. Blocking solution was removed and the plate was washed twice with solution of 50 mM Tris-HCl, 110 mM NaCl and 0.01% TWEEN (pH 7.4). Thrombin (5 units/mL) and 5 mM CaCl2 in 50 mM Tris-HCl, 110 mM NaCl (pH 7.4) was added to the wells for 45 min. A high salt wash (1M NaCl, 50 mM Tris-HCl, pH 7.4) followed by a TBS-TWEEN wash completed plate prep. Into each well, 198 μL of 10 mM HEPES/150 mM NaCl (pH 7.4) and 2 μL of 25 mM chromogenic substrate for Pn (D-VLK-pNA) were added. To appropriate wells were added 2 μL of 20 μM Pg, either a 24-hour unmodified control or 24 hour 50-500 μM MG modified. Activators were added to respective wells to test activation of unmodified and modified Pg. Each activator enzyme (2 μL) was utilized in appropriate wells for tPA (12 nM), uPA (50 nM) and STK (5 nM) (Ajjan et al., 2013, Zhang et al., 2012). Following enzyme addition, plate was immediately read on a SpectraMax M2 plate reader (Molecular Devices) every minute for 90 minutes at an absorbance of 405 nm.

T1 sequence (P00747 20-810 limits assumed): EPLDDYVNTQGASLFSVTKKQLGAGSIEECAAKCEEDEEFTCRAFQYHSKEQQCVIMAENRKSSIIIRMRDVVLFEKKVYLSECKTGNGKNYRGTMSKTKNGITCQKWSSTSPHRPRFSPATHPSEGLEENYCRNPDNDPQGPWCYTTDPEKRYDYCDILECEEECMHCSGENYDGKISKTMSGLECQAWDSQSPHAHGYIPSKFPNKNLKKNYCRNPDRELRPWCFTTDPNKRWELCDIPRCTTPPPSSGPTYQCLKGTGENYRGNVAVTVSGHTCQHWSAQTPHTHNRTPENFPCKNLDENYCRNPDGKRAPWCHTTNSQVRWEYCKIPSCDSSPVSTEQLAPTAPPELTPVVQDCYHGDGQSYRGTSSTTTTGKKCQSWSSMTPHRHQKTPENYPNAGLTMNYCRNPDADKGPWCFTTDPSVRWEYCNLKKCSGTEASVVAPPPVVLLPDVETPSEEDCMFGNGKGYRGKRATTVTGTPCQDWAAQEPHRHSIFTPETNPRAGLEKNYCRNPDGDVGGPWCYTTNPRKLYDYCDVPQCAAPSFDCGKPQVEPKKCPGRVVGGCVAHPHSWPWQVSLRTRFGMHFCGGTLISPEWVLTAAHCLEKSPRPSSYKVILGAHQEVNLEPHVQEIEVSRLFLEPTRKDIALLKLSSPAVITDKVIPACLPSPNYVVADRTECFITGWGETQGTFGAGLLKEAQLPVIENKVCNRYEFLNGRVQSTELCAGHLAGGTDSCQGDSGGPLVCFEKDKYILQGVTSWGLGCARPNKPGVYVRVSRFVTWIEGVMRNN

## CC(=O)C=O [MG, Methylglyoxal]
STK 5 nM, Pg modified 24 hours with 100 μM MG
  time at which significant delay in activation of MG-modified Pg is detectable: 16 min
STK 5 nM, Pg modified 24 hours with 500 μM MG
  time at which significant delay in activation of MG-modified Pg is detectable: 12 min
tPA 12 nM, Pg modified 24 hours with 100 μM MG
  time at which significant delay in activation of MG-modified Pg is detectable: 30 min
tPA 12 nM, Pg modified 24 hours with 500 μM MG
  time at which significant delay in activation of MG-modified Pg is detectable: 28 min
uPA 50 nM, Pg modified 24 hours with 500 μM MG
  time at which significant delay in activation of MG-modified Pg is detectable: 37 min
